Results as given in patent publication US8044089B2, “3-3-di-substituted-oxindoles as inhibitors of translation initiation” (President and Fellows of Harvard College, priority 2004, dated 2011).

Experiments:
eIF2α = eIF2α phosphorylation measured by Western blot; format: cell-based; conditions: for eIF2α-P (phosphorylation of eIF2α measured by Western blot): unit or reference not given
Source text: As a non-limiting example, compounds 1272 and 1273 (set forth in Table 1) were synthesized starting from 3-bromoaniline, which upon condensation with hydroxylamine and chloral hydrate followed by concentrated sulfuric acid yielded an inseparable regioisomeric mixture of 4- and 6-bromo isatins. The addition of the two phenyl groups to the three position of the oxindole allowed easy chromatographic separation of the 4- and 6-bromo-3,3-diphenyloxindoles 1272 and 1273. Table 1 sets forth biological data for diaryloxindole compounds including, but not limited to 1272 and 1273. For Tables 1-14, Ca^2+ refers to Ca^2+ release from intracellular stores where a “+” denotes release and a “+/−” denotes inconclusive; eIF2α-P refers to phosphorylation of eIF2α measured by Western blot; SRB refers to the inhibitory concentration to reduce cell growth by 50% (IC50) for growth inhibition of A549 lung cancer cells; and n.d. is not determined.
Without intending to be bound by theory, the mechanism of action of translation initiation inhibitors is set forth in FIG. 1, and includes the depletion (complete or partial depletion) of intracellular calcium (Ca^2+) stores and phosphorylation of eIF2α. Compounds synthesized using the approaches described herein were screened for their ability to partially deplete intracellular Ca^2+ stores using FURA-2AM loaded cells (Benzaquen et al. (1995) Nature Medicine, 1:534, incorporated herein by reference in its entirety for all purposes). A limited subset of compounds were further screened for their ability to deplete endoplasmic reticulum (ER) Ca^2+. The Ca^2+ content of the ER was monitored using ER-targeted, Ca^2+ sensitive, recombinant proteins. These recombinant proteins emitted light by fluorescent resonance energy transfer (FRET) as a function of the Ca^2+ content of the medium. Such assays are previously described (Miyawaki, A.; Mizuno, H.; Llopis, J.; Tsien, R. Y.; Jalink, K. Cameleons as cytosolic and intra-organellar calcium probes, Oxford University Press: Oxford, London, 2001; pp 3-16, incorporated herein by reference in its entirety for all purposes). Compounds that depleted Ca^2+ were further evaluated for their ability to phosphorylate eIF2α. eIF2α phosphorylation was measured by Western blot analysis using the phospho-specific anti-eIF2α antibody, as previously described (Aktas et al. (1998) Proc. Natl. Acad. Sci. USA, 95:8280, incorporated herein by reference in its entirety for all purposes).

[1] = system: intracellular Ca^2+ stores; test: Ca2+ release from intracellular stores (FURA-2AM loaded cells); format: cell-based; set-up: key to Ca^2+ (Ca^2+ release from intracellular stores): a “+” denotes release; a “+/−” denotes inconclusive
How it was run: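 Ca2+ release scored in FURA-2AM loaded cells as "+" (release) or "+/−" (inconclusive); some compounds also tested with ER-targeted FRET Ca2+ sensors. Ca2+-depleting compounds were then tested for eIF2α phosphorylation by Western blot with phospho-specific anti-eIF2α antibody.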

A549 lung cancer cells = test: SRB growth inhibition of A549 lung cancer cells; format: cell-based, human; conditions: for IC50: A549 lung cancer cells, unit inferred, read-out: SRB (IC50 for growth inhibition of A549 lung cancer cells)

Compound | IC50 (A549 lung cancer cells) | eIF2α-P (phosphorylation of eIF2α measured by Western blot) (eIF2α) | Ca^2+ (Ca^2+ release from intracellular stores) [1] | eIF2α phosphorylation (in words) (eIF2α) | growth inhibition of cancer cells (in words) (A549 lung cancer cells; A549)
CC(C)Cc1ccc(O)c(C2(c3ccccc3)C(=O)Nc3ccccc32)c1 (centres unmarked) [Compound 1281] | 3 µM | 7.94 | + |  | 
CC(C)c1ccc(O)c(C2(c3ccccc3)C(=O)Nc3ccccc32)c1 (centres unmarked) [Compound 1282] | 4 µM | 4.96 | + |  | 
CCCc1ccc(O)c(C2(c3ccccc3)C(=O)Nc3ccccc32)c1 (centres unmarked) [Compound 1283] | 3 µM | 7.67 | + |  | 
CCc1ccc(O)c(C2(c3ccccc3)C(=O)Nc3ccccc32)c1 (centres unmarked) [Compound 1285] | 8 µM | 2.96 | + |  | 
CCCCCc1ccc(O)c(C2(c3ccccc3)C(=O)Nc3ccccc32)c1 (centres unmarked) [Compound 1286] | 3 µM | 8.60 | + |  | 
CCCCc1ccc(O)c(C2(c3ccccc3)C(=O)Nc3ccccc32)c1 (centres unmarked) [Compound 1287] | 3 µM | 10.08 | + |  | 
CCCCCCc1ccc(O)c(C2(c3ccccc3)C(=O)Nc3ccccc32)c1 (centres unmarked) [Compound 1288] | 3 µM | 6.28 | + |  | 
O=C1Nc2ccccc2C1(c1ccccc1)c1cc(C2CCCC2)ccc1O (centres unmarked) [Compound 1289] | 3 µM | 6.49 | + |  | 
O=C1Nc2ccccc2C1(c1ccccc1)c1cc(C2CCCCC2)ccc1O (centres unmarked) [Compound 1290] | 3 µM | 8.60 | +/− |  | 
COc1ccccc1C1(c2ccccc2)C(=O)Nc2ccccc21 (centres unmarked) [Compound 1292] | 9 µM | 1.04 | +/− |  | 
COc1cccc(C2(c3ccccc3)C(=O)Nc3ccccc32)c1 (centres unmarked) [Compound 1293] | 14 µM | 1.30 | +/− |  | 
O=C1Nc2ccccc2C1(c1ccccc1)c1ccc(O)cc1 (centres unmarked) [Compound 1295] | 16 µM | 1.66 | + |  | 
CC(C)Cc1ccc(C2(c3ccccc3)C(=O)Nc3ccccc32)cc1 (centres unmarked) [Compound 1297] | 8 µM | 0.7 | + |  | 
CCCCc1ccc(C2(c3ccccc3)C(=O)Nc3ccccc32)cc1 (centres unmarked) [Compound 1298] | 8 µM | 0.45 | +/− |  | 
O=C1Nc2ccccc2C1(c1ccccc1)c1ccc(OCCO)cc1 (centres unmarked) [Compound 1299] | 5 µM | 0.71 | + |  | 
CC(C)(C)c1ccc(C2(c3ccccc3)C(=O)Nc3ccccc32)cc1 (centres unmarked) [Compound 1349] | 8 µM | 1.27 | + |  | 
O=C1Nc2ccc(F)cc2C1(c1ccccc1)c1ccccc1 [Compound 1350] | 9 µM | 1.16 | + |  | 
COC(=O)c1ccc(Cl)c2c1NC(=O)C2(c1ccccc1)c1ccccc1 [Compound 1351] | > 20 µM | 1.35 | +/− |  | 

Now from value to compound, other results behind:

IC50 (A549 lung cancer cells) | Compound | eIF2α-P (phosphorylation of eIF2α measured by Western blot) (eIF2α) | Ca^2+ (Ca^2+ release from intracellular stores) [1] | eIF2α phosphorylation (in words) (eIF2α) | growth inhibition of cancer cells (in words) (A549 lung cancer cells; A549)
> 20 µM | COC(=O)c1cccc2c1NC(=O)C2(c1ccccc1)c1ccccc1 [Compound 1354] | 1.74 | + |  | 
5 µM | Nc1ccc(CCNC(=O)c2ccc(Cl)c3c2NC(=O)C3(c2ccccc2)c2ccccc2)cc1 [Compound 1355] | 3.80 | +/− |  | 
4 µM | O=C(O)c1ccc(Cl)c2c1NC(=O)C2(c1ccccc1)c1ccccc1 [Compound 1392] | 2.76 | + | improved eIF2α phosphorylation | improved growth inhibition of cancer cells
9 µM | Cc1cc(C2(c3ccccc3)C(=O)Nc3c(C(=O)O)cccc32)c(NC(=O)OCC2c3ccccc3-c3ccccc32)cc1O (centres unmarked) [Compound 1394] | 8.21 | + |  | 
8 µM | CC(C)(C)c1ccc(OCC(=O)O)c(C2(c3ccccc3)C(=O)Nc3ccccc32)c1 (centres unmarked) [Compound 1397] | 1.46 | + |  | 
3 µM | CC(C)CC(NC(=O)COc1ccc(C(C)(C)C)cc1C1(c2ccccc2)C(=O)Nc2ccccc21)C(=O)NC(CO)Cc1ccccc1 (centres unmarked) [Compound 1400] | 3.70 | + |  | 
> 20 µM | O=C1Nc2c(Cn3ccnc3)ccc(Cl)c2C1(c1ccccc1)c1ccccc1 [Compound 1401] | 2.56 | +/− |  | 
9 µM | COC(=O)COc1ccc(C(C)(C)C)cc1C1(c2ccccc2)C(=O)Nc2ccccc21 (centres unmarked) [Compound 1402] | 3.94 | + |  | 
4 µM | Cc1cc(C2(c3ccccc3)C(=O)Nc3ccccc32)c(NS(=O)(=O)Cc2ccccc2)cc1O (centres unmarked) [Compound 1405] | 1.84 | + |  | 
> 20 µM | CC(C)(C)c1ccc(O)c(C2(c3ccccc3)C(=O)Nc3c(C(=O)O)cccc32)c1 (centres unmarked) [Compound 1408] | 2.08 | + |  | 
> 20 µM | Cc1cc(C2(c3ccccc3)C(=O)Nc3c(C(=O)O)cccc32)c(NS(C)(=O)=O)cc1O (centres unmarked) [Compound 1417] | 0.96 | + |  | 
16 µM | CC(C)(C)c1ccc(O)c(C2(c3ccccc3)C(=O)Nc3c(C(=O)O)ccc(Cl)c32)c1 (centres unmarked) [Compound 1418] | 7.47 | + |  | 
3 µM | Cc1cc(C2(c3ccccc3)C(=O)Nc3ccccc32)c(NS(=O)(=O)c2cccc(C(F)(F)F)c2)cc1O (centres unmarked) [Compound 1514] | 1.65 | + |  | 
5 µM | Cc1cc(C2(c3ccccc3)C(=O)Nc3ccccc32)c(NS(=O)(=O)c2ccc([N+](=O)[O-])cc2)cc1O (centres unmarked) [Compound 1589] | 1 | + |  | 
5 µM | COc1ccc(S(=O)(=O)Nc2cc(O)c(C)cc2C2(c3ccccc3)C(=O)Nc3ccccc32)cc1 (centres unmarked) [Compound 1590] | 1.12 | + |  | 
3 µM | Cc1cc(C2(c3ccccc3)C(=O)Nc3ccccc32)c(NS(=O)(=O)c2ccc(Br)cc2)cc1O (centres unmarked) [Compound 1591] | 3.30 | + |  | 
3 µM | Cc1cc(C2(c3ccccc3)C(=O)Nc3ccccc32)c(NS(=O)(=O)c2ccc(I)cc2)cc1O (centres unmarked) [Compound 1592] | 5.19 | + |  | 
